{
  "source": "patent US20020026053A1",
  "about": "“Novel 3-(substituted) -2- indolinones compounds and use thereof as inhibitors of protein kinase activity” (priority 1997, published 2002)",
  "data": [
    {"test_system": "FLK-1 receptor", "test": "FLK-1 Assay (cellular/catalytic ELISA, VEGF-stimulated phosphotyrosine)", "format": "cell-based", "set-up": "concentration or dose not given beside the values", "outline": "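NIH3T3 C7#3 cells engineered to express Flk-1 were serum-starved overnight (0.1% FBS), then exposed to compound for 2 h at 37 °C (final dilution 1:200, 0.5% DMSO) before VEGF stimulation. Lysates captured on anti-FLK-1 antiserum plates; phosphotyrosine detected by UB40 antibody/POD-ABTS ELISA versus untreated controls.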", "units": {"Flk Kinase % Inhibition (P.110)": "%"}, "values": [
      {"molecule": "O=C1Nc2ccc(S(=O)(=O)Nc3ccc(C(F)(F)F)cc3)cc2C1=Cc1cc(C(F)(F)F)cc(C(F)(F)F)c1", "note": "[10735/E06]", "Flk Kinase % Inhibition (P.110)": 23.8},
      {"molecule": "N#Cc1ccccc1C=C1C(=O)Nc2ccc(S(=O)(=O)Nc3ccc(C(F)(F)F)cc3)cc21", "note": "[10735/E07]", "Flk Kinase % Inhibition (P.110)": 16.1},
      {"molecule": "O=C1Nc2ccc(S(=O)(=O)Nc3ccc(C(F)(F)F)cc3)cc2C1=Cc1c(F)cccc1F", "note": "[10735/E08]", "Flk Kinase % Inhibition (P.110)": 14.4},
      {"molecule": "O=C1Nc2ccc(S(=O)(=O)Nc3ccc(C(F)(F)F)cc3)cc2C1=Cc1cccc2ccccc12", "note": "[10735/E09]", "Flk Kinase % Inhibition (P.110)": 29.6},
      {"molecule": "O=C1Nc2ccc(S(=O)(=O)Nc3ccc(C(F)(F)F)cc3)cc2C1=Cc1ccc(Cl)cc1Cl", "note": "[10735/E10]", "Flk Kinase % Inhibition (P.110)": 10.2},
      {"molecule": "O=C1Nc2ccc(S(=O)(=O)Nc3ccc(C(F)(F)F)cc3)cc2C1=Cc1ccc(-c2ccccc2)cc1", "note": "[10735/E11]", "Flk Kinase % Inhibition (P.110)": 21.9},
      {"molecule": "Cc1ccccc1C=C1C(=O)Nc2ccc(S(=O)(=O)N3CCOCC3)cc21", "note": "[10735/F02]", "Flk Kinase % Inhibition (P.110)": 2.1},
      {"molecule": "O=C1Nc2ccc(S(=O)(=O)N3CCOCC3)cc2C1=Cc1ccc(F)c(F)c1", "note": "[10735/F03]", "Flk Kinase % Inhibition (P.110)": 11.0},
      {"molecule": "O=C1Nc2ccc(S(=O)(=O)N3CCOCC3)cc2C1=Cc1cc(F)cc(F)c1", "note": "[10735/F04]", "Flk Kinase % Inhibition (P.110)": 16.4},
      {"molecule": "O=C1Nc2ccc(S(=O)(=O)N3CCOCC3)cc2C1=Cc1cccc(C(F)(F)F)c1", "note": "[10735/F05]", "Flk Kinase % Inhibition (P.110)": 30.2},
      {"molecule": "O=C1Nc2ccc(S(=O)(=O)N3CCOCC3)cc2C1=Cc1cc(C(F)(F)F)cc(C(F)(F)F)c1", "note": "[10735/F06]", "Flk Kinase % Inhibition (P.110)": 16.7},
      {"molecule": "N#Cc1ccccc1C=C1C(=O)Nc2ccc(S(=O)(=O)N3CCOCC3)cc21", "note": "[10735/F07]", "Flk Kinase % Inhibition (P.110)": 34.0},
      {"molecule": "O=C1Nc2ccc(S(=O)(=O)N3CCOCC3)cc2C1=Cc1c(F)cccc1F", "note": "[10735/F08]", "Flk Kinase % Inhibition (P.110)": 10.7},
      {"molecule": "O=C1Nc2ccc(S(=O)(=O)N3CCOCC3)cc2C1=Cc1cccc2ccccc12", "note": "[10735/F09]", "Flk Kinase % Inhibition (P.110)": 40.2},
      {"molecule": "O=C1Nc2ccc(S(=O)(=O)N3CCOCC3)cc2C1=Cc1ccc(Cl)cc1Cl", "note": "[10735/F10]", "Flk Kinase % Inhibition (P.110)": 40.0},
      {"molecule": "O=C1Nc2ccc(S(=O)(=O)N3CCOCC3)cc2C1=Cc1ccc(-c2ccccc2)cc1", "note": "[10735/F11]", "Flk Kinase % Inhibition (P.110)": 34.6},
      {"molecule": "Cc1ccccc1C=C1C(=O)Nc2ccc(CCCl)cc21", "note": "[10735/G02]", "Flk Kinase % Inhibition (P.110)": 5.1},
      {"molecule": "O=C1Nc2ccc(CCCl)cc2C1=Cc1ccc(F)c(F)c1", "note": "[10735/G03]", "Flk Kinase % Inhibition (P.110)": 6.8},
      {"molecule": "O=C1Nc2ccc(CCCl)cc2C1=Cc1cc(F)cc(F)c1", "note": "[10735/G04]", "Flk Kinase % Inhibition (P.110)": 15.6},
      {"molecule": "O=C1Nc2ccc(CCCl)cc2C1=Cc1cccc(C(F)(F)F)c1", "note": "[10735/G05]", "Flk Kinase % Inhibition (P.110)": 8.8},
      {"molecule": "O=C1Nc2ccc(CCCl)cc2C1=Cc1cc(C(F)(F)F)cc(C(F)(F)F)c1", "note": "[10735/G06]", "Flk Kinase % Inhibition (P.110)": 18.5}
    ]}
  ]
}
